Data as given in ChEMBL document CHEMBL1201862, “PubChem BioAssay data set” (2004).
Calls of active or inactive are those of the source.

Key:
[1] = molecular target: Signal transducer and activator of transcription 1-alpha/beta (Homo sapiens, UniProt P42224); assay: STAT3 inhibitors, late-stage profile, late-stage follow-up, cell-based, STAT1 panel, qPCR, cytotoxicity, panel member STAT1 Inhibition (AID 2078)
[2] = molecular target: Signal transducer and activator of transcription 3 (Homo sapiens, UniProt P40763); assay: STAT3 inhibitors, late-stage profile, late-stage follow-up, cell-based, STAT1 panel, qPCR, cytotoxicity, panel member STAT3 Inhibition (AID 2078)
[3] = molecular target: T1, Ubiquitin-conjugating enzyme E2 N (Homo sapiens, UniProt P61088); format: functional
T1 sequence (P61088 whole entry): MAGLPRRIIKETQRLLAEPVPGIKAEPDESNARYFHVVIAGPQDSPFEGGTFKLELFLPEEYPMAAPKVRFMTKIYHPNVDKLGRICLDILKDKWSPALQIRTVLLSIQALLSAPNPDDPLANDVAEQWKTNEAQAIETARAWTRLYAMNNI

Streptococcus = assay: Group A Streptococcus viability loss, dose response, counter-screen for streptokinase expression inhibitor project, luminescence, BacTiterGlo (AID 1915); format: functional, organism-based;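 note: potency for reduction of bacterial viability or growth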
Bcl-2-related protein A1 [4] = molecular target: T2, Bcl-2-related protein A1 (Mus musculus, UniProt Q07440); format: functional;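 note: confirmatory dose–response counterscreen on Bfl-1, used to check hits from a UBC13 polyubiquitin inhibitor campaign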
T2 sequence (Q07440 whole entry): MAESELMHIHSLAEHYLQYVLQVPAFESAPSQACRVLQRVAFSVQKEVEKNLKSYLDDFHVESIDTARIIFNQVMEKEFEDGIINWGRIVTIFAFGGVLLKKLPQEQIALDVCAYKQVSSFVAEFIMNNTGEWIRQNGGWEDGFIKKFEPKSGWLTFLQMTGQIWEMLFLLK

[5] = test system: Streptococcus sp. 'group A'; assay: growth inhibition of control SK(-) GAS strain, dose response, counter-screen for streptokinase expression inhibitor project, luminescence, kanamycin, BacTiterGlo, confirmation (AID 1900); format: functional, organism-based
[6] = molecular target: T1, Ubiquitin-conjugating enzyme E2 N; format: functional; remark: listed apart in the source
Streptokinase A = molecular target: T3, Streptokinase A (Streptococcus pyogenes serotype M1, UniProt P10520); assay: S. pyogenes streptokinase expression inhibitors, potency, dose response, plasminogen activation absorbance, OD405 (AID 1914); format: functional, Streptococcus pyogenes M1 GAS;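 note: secreted streptokinase activity via plasminogen activation per viability signal from cell pellet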
T3 sequence (P10520 whole entry): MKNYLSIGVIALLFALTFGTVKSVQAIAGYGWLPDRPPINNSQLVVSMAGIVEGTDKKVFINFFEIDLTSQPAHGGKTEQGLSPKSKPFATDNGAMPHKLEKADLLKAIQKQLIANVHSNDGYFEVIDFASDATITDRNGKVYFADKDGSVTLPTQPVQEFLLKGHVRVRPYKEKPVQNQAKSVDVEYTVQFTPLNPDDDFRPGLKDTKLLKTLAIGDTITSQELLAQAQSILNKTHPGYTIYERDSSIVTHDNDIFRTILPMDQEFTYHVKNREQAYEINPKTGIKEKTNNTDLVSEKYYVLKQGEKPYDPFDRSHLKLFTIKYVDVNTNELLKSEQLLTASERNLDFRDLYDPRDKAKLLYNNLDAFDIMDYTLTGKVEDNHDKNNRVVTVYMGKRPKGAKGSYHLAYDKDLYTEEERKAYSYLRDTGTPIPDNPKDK

[7] = molecular target: T4, Low molecular weight phosphotyrosine protein phosphatase (Homo sapiens, UniProt P24666); format: functional; settings: read-out: IC50_Mean
T4 sequence (P24666 whole entry): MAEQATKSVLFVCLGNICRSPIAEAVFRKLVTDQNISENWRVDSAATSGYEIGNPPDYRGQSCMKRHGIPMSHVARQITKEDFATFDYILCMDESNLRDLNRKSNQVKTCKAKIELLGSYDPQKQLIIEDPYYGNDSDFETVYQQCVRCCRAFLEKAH

[8] = molecular target: Tyrosine-protein phosphatase non-receptor type 5 (Homo sapiens, UniProt P54829); assay: STEP phosphatase inhibitors, confirmation, biochemical, fluorescence intensity, uHTS hits (AID 602372); format: functional; settings: read-out: IC50_Mean
[9] = molecular target: T5, Dual specificity protein phosphatase 3 (Homo sapiens, UniProt P51452); assay: VHR phosphatase inhibition, dose response, selectivity assay for STEP inhibitor project, biochemical (AID 602374); format: functional; settings: read-out: IC50_Mean
[10] = molecular target: T4, Low molecular weight phosphotyrosine protein phosphatase; format: functional; settings: read-out: IC50_Mean; remark: listed apart in the source
[11] = molecular target: T6, Dual specificity protein phosphatase 6 (Rattus norvegicus, UniProt Q64346); assay: MKP-3 phosphatase inhibitors, primary screen, biochemical, rat enzyme, in vitro (AID 425)
T6 sequence (Q64346 whole entry): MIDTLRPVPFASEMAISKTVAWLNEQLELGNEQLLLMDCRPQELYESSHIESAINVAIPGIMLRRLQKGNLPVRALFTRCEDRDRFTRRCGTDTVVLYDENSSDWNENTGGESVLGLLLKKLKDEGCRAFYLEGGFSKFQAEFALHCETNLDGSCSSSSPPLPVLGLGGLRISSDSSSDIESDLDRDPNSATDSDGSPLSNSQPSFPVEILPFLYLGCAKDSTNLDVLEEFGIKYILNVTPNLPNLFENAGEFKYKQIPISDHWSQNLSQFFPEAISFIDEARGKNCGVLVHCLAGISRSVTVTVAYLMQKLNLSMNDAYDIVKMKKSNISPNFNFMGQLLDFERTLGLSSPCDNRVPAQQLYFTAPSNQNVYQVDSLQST

[12] = growth suppression of PTEN-null colon cells, dose response, cell-based, HCT116 PTEN knockout (AID 1047); format: functional;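 note: HCT116 colon tumor cells with PTEN knocked out; cells exposed to compound for 60 hours before readout; potency for loss of cell viability measured by luminescence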
[13] = molecular target: Tyrosine-protein phosphatase non-receptor type 11 (Homo sapiens, UniProt Q06124); assay: SHP2 phosphatase inhibition, dose response, selectivity assay for STEP inhibitor project, biochemical (AID 602367); format: functional; settings: read-out: IC50_Mean
[14] = molecular target: T5, Dual specificity protein phosphatase 3; assay: VHR1 phosphatase inhibitors, biochemical (AID 1878)
[15] = growth suppression of beta-catenin-knockout colon cells, dose response, cell-based, HCT116, human colon tumor (AID 1045); format: functional;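 note: HCT116 colon tumor cells with beta catenin knocked out; cells exposed to compound for 60 hours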
[16] = molecular target: T5, Dual specificity protein phosphatase 3; assay: VHR1 phosphatase inhibitors, primary screen, biochemical, absorbance, uHTS (AID 1654)
[17] = molecular target: Voltage-dependent T-type calcium channel subunit alpha-1H (Homo sapiens, UniProt O95180); assay: Cav3.2 T-type channel blockers, cell-based, SynthLib3 library, HEK293 Cav3.2, fluorescence (AID 493041); format: functional
[18] = molecular target: T7, Tyrosine-protein phosphatase non-receptor type 7 (Homo sapiens, UniProt P35236); format: functional
T7 sequence (P35236 whole entry): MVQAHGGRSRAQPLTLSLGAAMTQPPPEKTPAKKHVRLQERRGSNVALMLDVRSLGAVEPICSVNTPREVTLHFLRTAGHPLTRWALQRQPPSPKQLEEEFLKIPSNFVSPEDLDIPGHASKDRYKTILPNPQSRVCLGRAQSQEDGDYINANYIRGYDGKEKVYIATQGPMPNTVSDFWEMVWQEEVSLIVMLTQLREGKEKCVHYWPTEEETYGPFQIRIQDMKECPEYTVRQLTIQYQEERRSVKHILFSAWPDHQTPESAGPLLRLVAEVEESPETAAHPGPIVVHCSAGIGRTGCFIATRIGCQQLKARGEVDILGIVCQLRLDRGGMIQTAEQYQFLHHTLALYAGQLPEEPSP

[19] = molecular target: T8, Tyrosine-protein phosphatase non-receptor type 22 (Homo sapiens, UniProt Q9Y2R2); format: functional
T8 sequence (Q9Y2R2 whole entry): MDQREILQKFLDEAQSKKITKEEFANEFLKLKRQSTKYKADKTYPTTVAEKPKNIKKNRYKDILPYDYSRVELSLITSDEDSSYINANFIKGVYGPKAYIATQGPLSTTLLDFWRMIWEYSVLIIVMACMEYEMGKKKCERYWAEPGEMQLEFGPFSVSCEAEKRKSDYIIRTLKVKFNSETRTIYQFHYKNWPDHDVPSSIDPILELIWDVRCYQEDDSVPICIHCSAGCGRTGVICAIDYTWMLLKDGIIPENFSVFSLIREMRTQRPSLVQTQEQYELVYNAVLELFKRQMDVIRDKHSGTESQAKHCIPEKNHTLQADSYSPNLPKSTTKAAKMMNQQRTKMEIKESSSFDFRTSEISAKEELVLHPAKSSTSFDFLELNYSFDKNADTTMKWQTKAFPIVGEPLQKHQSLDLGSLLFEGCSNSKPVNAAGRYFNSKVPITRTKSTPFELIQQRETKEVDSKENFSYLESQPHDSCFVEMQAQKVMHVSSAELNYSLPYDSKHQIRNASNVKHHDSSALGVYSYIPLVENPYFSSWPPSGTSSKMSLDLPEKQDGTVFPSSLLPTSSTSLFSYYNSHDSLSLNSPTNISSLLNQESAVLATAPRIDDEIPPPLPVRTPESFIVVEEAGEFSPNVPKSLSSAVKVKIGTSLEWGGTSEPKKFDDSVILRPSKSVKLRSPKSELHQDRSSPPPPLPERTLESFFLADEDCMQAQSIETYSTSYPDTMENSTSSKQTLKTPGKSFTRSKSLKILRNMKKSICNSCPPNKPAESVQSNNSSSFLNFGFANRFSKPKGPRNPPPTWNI

[20] = molecular target: T8, Tyrosine-protein phosphatase non-receptor type 22; format: functional; remark: listed apart in the source
[21] = molecular target: Nucleotide-binding oligomerization domain-containing protein 2 (Homo sapiens, UniProt Q9HC29); assay: NOD2 signaling inhibitors, analog potency, SAR follow-up, cell-based, set 3 (AID 2799); format: functional
Tumor necrosis factor = Tumor necrosis factor (Homo sapiens, UniProt P01375); assay: TNFa-triggered NF-kB activation inhibitors, SAR follow-up, cell-based, set 3 (AID 2801); format: functional
[22] = molecular target: Glyceraldehyde-3-phosphate dehydrogenase (Homo sapiens, UniProt P04406)
Bcl-2-related protein A1 [23] = molecular target: T2, Bcl-2-related protein A1; assay: Bfl-1 binding inhibitors, SAR follow-up, biochemical, fluorescence polarization (AID 1070)
HEK293 = assay: SAR analysis of compounds that are cytotoxic to HEK293 - Set 3. [Related pubchem assays (depositor defined):AID1575, AID1578, AID1848, AID1849, AID2001, AID2333, AID2334, AID2335, AID2337, AID2469]; format: functional, cell-based; settings: Homo sapiens
Bcl-2-related protein A1 [24] = molecular target: T2, Bcl-2-related protein A1; assay: Bfl-1 inhibitors blocking BH3 peptide binding, confirmation, biochemical, TR-FRET, mouse Bfl-1 (AID 621);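 note: TR-FRET binding of GST-Bfl-1 to FITC-labelled Bid peptide via terbium antibody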
[25] = molecular target: T9, Nucleotide-binding oligomerization domain-containing protein 1 (Homo sapiens, UniProt Q9Y239); assay: SAR analysis of compounds that inhibit NOD1 - Set 3. [Related pubchem assays (depositor defined):AID1566, AID1575, AID1578, AID1849, AID1852, AID2333, AID2335, AID2466]; format: functional
T9 sequence (Q9Y239 whole entry): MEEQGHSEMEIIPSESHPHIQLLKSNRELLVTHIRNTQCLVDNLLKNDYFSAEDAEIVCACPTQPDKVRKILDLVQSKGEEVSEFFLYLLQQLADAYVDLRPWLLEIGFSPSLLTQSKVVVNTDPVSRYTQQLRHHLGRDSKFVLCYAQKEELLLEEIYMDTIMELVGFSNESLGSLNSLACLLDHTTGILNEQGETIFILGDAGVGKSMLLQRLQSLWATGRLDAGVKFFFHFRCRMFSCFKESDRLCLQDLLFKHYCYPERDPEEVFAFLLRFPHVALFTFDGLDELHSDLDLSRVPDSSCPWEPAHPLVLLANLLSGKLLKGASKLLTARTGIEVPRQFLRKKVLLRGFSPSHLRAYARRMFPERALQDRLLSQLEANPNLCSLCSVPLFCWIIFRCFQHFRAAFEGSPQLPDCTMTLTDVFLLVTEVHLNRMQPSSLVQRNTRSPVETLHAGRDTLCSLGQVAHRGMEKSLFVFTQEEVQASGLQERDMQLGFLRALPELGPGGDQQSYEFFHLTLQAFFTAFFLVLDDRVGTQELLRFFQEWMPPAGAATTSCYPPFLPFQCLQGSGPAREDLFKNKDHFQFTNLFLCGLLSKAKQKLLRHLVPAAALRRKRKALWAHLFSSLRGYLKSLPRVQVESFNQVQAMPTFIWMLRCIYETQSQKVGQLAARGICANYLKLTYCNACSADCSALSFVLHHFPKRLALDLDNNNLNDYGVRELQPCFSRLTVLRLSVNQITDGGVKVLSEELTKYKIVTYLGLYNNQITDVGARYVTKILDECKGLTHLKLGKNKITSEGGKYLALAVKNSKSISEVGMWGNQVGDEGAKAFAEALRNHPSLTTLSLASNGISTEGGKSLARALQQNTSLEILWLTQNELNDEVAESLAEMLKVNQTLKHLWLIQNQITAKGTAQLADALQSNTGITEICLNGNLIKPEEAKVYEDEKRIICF

T5 sequence (P51452 whole entry): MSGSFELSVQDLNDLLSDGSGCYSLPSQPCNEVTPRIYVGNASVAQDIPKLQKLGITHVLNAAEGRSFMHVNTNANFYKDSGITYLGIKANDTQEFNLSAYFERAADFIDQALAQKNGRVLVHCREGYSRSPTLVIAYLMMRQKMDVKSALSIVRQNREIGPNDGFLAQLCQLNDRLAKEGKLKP
Voltage-dependent T-type calcium channel subunit alpha-1H, sequence (O95180 whole entry): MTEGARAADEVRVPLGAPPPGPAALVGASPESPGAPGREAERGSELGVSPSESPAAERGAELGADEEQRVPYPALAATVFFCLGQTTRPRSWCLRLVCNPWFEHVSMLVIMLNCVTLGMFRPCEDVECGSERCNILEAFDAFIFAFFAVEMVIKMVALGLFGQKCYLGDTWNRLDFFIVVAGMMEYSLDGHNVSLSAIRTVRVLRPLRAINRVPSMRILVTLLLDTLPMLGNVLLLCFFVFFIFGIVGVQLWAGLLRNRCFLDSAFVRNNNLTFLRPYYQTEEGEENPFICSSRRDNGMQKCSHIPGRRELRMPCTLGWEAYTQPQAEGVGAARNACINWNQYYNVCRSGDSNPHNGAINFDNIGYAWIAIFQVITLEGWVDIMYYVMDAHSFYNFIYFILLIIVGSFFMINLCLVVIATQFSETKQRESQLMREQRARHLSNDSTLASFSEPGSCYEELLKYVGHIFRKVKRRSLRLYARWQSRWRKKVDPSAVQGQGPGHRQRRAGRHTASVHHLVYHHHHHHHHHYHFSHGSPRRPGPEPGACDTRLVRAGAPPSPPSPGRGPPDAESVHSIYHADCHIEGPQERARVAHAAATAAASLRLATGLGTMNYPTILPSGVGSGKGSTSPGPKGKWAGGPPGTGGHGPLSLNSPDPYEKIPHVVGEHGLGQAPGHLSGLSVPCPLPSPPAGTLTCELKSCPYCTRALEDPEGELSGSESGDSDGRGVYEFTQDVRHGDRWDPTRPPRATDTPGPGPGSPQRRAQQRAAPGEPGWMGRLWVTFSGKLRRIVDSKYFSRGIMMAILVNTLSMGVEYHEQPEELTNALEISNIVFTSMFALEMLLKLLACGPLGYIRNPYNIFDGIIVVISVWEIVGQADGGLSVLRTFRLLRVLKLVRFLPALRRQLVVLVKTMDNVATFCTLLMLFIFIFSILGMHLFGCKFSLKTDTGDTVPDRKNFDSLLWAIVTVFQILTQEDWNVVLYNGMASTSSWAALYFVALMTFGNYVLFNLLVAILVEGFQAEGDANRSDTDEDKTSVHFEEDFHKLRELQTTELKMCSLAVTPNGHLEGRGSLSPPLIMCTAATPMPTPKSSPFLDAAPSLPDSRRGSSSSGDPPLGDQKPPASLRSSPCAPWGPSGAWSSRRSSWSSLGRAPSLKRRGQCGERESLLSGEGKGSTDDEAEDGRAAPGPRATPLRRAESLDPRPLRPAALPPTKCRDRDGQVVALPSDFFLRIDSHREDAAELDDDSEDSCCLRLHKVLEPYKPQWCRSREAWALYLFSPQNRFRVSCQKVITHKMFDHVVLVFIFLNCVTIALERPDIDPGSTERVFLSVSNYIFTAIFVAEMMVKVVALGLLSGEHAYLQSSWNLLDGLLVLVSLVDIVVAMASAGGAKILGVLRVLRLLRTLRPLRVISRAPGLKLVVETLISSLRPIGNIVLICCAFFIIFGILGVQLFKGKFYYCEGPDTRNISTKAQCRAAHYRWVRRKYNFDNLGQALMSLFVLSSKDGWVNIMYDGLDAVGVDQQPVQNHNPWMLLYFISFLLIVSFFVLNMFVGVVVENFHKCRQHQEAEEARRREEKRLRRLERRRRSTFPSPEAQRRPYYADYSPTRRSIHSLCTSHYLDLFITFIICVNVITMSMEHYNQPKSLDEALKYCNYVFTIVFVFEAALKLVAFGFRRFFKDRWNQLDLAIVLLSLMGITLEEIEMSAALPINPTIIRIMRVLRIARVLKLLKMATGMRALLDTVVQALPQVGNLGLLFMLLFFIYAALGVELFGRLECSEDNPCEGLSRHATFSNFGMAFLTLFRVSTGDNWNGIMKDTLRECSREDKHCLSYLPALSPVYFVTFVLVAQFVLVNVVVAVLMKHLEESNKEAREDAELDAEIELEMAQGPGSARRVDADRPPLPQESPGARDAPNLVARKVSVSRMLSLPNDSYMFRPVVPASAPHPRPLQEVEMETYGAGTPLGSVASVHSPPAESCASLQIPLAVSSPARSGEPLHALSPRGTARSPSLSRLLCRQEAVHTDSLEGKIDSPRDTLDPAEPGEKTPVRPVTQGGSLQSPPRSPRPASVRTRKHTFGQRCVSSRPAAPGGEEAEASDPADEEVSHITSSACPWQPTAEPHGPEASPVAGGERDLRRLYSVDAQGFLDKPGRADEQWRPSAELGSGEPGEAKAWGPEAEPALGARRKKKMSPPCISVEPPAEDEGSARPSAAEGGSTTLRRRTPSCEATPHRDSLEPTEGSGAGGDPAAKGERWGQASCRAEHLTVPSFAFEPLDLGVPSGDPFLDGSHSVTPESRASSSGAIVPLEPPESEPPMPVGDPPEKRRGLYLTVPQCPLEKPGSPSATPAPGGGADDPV
Glyceraldehyde-3-phosphate dehydrogenase, sequence (P04406 whole entry): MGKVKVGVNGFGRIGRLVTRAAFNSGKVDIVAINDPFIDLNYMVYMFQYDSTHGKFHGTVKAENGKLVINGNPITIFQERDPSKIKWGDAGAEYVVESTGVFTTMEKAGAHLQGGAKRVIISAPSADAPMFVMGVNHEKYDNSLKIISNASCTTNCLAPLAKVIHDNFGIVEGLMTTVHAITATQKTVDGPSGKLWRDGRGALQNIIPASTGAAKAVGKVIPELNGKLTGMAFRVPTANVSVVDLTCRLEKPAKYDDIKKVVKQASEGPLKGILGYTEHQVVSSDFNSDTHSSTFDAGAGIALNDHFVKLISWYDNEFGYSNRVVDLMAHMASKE
Signal transducer and activator of transcription 3, sequence (P40763 whole entry): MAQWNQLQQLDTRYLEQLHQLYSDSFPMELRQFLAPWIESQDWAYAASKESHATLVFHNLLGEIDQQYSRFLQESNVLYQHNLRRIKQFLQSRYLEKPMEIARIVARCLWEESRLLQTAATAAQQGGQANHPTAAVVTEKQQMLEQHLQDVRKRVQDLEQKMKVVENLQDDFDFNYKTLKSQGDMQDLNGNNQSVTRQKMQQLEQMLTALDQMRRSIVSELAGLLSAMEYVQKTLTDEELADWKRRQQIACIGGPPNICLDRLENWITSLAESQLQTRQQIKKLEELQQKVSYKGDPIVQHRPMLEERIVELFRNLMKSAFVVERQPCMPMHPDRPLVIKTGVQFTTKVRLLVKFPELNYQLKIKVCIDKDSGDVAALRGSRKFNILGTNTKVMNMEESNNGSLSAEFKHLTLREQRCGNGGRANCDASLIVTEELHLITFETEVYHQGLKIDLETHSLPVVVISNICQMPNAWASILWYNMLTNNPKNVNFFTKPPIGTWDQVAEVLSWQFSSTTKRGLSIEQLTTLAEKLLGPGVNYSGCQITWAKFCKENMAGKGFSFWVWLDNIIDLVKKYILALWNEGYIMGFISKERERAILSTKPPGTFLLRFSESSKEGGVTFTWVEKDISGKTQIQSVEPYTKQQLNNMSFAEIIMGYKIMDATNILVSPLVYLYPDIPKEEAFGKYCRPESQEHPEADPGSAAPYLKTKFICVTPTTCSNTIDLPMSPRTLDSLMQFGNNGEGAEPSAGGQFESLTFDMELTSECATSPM
Tumor necrosis factor, sequence (P01375 whole entry): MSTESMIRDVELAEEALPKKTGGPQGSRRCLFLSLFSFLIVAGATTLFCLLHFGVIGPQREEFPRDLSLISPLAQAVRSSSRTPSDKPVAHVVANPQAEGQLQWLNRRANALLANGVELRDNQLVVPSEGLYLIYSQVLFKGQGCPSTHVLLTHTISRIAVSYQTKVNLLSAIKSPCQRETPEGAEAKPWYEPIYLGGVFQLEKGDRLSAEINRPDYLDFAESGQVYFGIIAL
Tyrosine-protein phosphatase non-receptor type 11, sequence (Q06124 whole entry): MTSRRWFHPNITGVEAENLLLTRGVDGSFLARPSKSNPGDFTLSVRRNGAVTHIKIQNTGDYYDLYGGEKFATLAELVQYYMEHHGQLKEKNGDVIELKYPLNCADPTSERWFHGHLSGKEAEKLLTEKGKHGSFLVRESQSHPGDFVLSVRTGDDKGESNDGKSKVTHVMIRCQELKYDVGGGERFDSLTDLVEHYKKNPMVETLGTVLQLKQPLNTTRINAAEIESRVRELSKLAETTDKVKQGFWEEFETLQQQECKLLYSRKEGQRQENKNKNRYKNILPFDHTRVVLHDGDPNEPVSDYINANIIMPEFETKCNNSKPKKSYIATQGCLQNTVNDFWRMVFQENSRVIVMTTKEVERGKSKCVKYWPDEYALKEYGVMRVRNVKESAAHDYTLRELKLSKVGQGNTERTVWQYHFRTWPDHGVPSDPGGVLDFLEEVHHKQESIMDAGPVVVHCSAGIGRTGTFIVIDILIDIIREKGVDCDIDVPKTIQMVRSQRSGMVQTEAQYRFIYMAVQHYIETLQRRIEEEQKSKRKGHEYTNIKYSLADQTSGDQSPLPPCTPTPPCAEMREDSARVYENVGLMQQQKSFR
Tyrosine-protein phosphatase non-receptor type 5, sequence (P54829 whole entry): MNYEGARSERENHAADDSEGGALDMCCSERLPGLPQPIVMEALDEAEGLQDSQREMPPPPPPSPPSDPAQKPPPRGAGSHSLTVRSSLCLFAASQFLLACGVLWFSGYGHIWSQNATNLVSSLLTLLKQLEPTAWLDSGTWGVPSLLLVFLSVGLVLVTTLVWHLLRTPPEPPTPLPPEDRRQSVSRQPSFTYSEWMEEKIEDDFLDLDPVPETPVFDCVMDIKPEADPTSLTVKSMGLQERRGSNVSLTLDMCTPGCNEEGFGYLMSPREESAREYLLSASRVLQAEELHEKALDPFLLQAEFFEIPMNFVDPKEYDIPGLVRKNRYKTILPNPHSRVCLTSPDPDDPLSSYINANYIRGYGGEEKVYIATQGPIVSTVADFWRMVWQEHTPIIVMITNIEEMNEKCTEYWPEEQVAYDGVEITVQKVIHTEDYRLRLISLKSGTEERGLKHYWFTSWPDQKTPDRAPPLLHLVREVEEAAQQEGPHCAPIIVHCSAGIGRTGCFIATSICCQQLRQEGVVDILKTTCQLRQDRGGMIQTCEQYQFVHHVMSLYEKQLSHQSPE

Compound: COc1ccc(CN2CCN(c3ncnc4sc5c(c34)CCCCC5)CC2)cc1
- IC50 [1]: > 55.7 µM (inactive)
- IC50 [2]: > 18.6 µM (inactive)

Compound: COc1ccc(OCC(=O)NNC(=S)NC(=O)C2CC2)cc1
- IC50 [3]: 14.8 µM (active)
- EC50 (Streptococcus): 23.3 µM (active)
- IC50 (Bcl-2-related protein A1 [4]): > 20 µM (inactive)
- EC50 [5]: 7.37 µM (active)
- IC50 [6]: 6.63 µM (active)
- EC50 (Streptokinase A): > 150 µM (not active)

Compound: Cc1ccc(-c2nc(NC(=O)CSc3cc(C)c4ccccc4n3)ns2)cc1
- IC50 [7]: 9.06 µM (active)
- IC50 [8]: 3.06 µM (active)
- IC50 [9]: 1.31 µM (active)
- IC50 [10]: 11.7 µM (active)
- IC50 [11]: 24.3 µM (active)
- EC50 [12]: 29.1 µM (active)
- IC50 [13]: 0.77 µM (active)
- IC50 [14]: 8.86 µM (active)
- EC50 [15]: 17.9 µM (active)
- IC50 [16]: 27.3 µM (active)

Compound: CCC(CC)CN1CC2CCC(NC(=O)c3cc(Cl)cc(Cl)c3)C2C1 (centres undefined)
- EC50 [17]: 2.4 µM (active)

Compound: O=C(C[S+]([O-])CC(=O)Nc1ccc(Cl)cc1)NCC1OCCc2ccccc21 (centres undefined)
- IC50 [18]: > 79.4 µM (inactive)
- IC50 [19]: > 79.4 µM (inactive)
- IC50 [20]: > 79.4 µM (inactive)

Compound: COc1ccc(-c2cc(N)n(S(=O)(=O)c3ccc(C(C)(C)C)cc3)n2)cc1OC
- IC50 [21]: > 20 µM (inactive)
- IC50 (Tumor necrosis factor): > 20 µM (inactive)
- IC50 [22]: > 100 µM (not active)
- IC50 (Bcl-2-related protein A1 [23]): > 100 µM (not active)
- IC50 (HEK293): > 20 µM (inactive)
- IC50 (Bcl-2-related protein A1 [24]): > 100 µM (not active)
- IC50 [25]: > 20 µM (inactive)
